From patent US20250230193A1, “CYCLIC COMPOUND HAVING SELECTIVE KRAS INHIBITORY EFFECT ON HRAS AND NRAS” (CHUGAI SEIYAKU KABUSHIKI KAISHA, priority 2022, published 2025)
*1 amine or outer side, *2 acyl side, *3 side chain or, on linkers, in order; H or OH if unused. Where a SMILES comes first, the peptide text is derived from it. Bridges are numbered along the chain shown (N, C = ends). [ ]: non-standard residue; d: D form. The star is where a group is joined. hPhe(3-Cl-4-CF3) = N[C@@H](CCc1ccc(C(F)(F)F)c(Cl)c1)C(=O)O; NPrPhe(4-CF3) = CCCN[C@@H](Cc1ccc(C(F)(F)F)cc1)C(=O)O; X40 = CCCN([C@@H](Cc1ccc(OC)cc1)C(=O)[*:2])[*:1]; NMeGly(cPent) = CN[C@H](C(=O)O)C1CCCC1; Pro(4,4-F2) = O=C(O)[C@@H]1CC(F)(F)CN1; Aze(3S-Me) = C[C@H]1CN[C@@H]1C(=O)O; NMeD = CN[C@@H](CC(=O)O)C(=O)O; NMeL = CN[C@@H](CC(C)C)C(=O)O; Morpholide = C1CN(*)CCO1; NMeA = CN[C@@H](C)C(=O)O; Ac5c = NC1(C(=O)O)CCCC1; Aze = O=C(O)[C@@H]1CCN1; Ac4c = NC1(C(=O)O)CCC1; Sar = CNCC(=O)O

Assays:
[1] = biological target: GDP-bound NRAS wild-type protein (Homo sapiens, UniProt P01111); experiment: Binding to NRAS by surface plasmon resonance (SPR), Single Cycle Kinetics
Sequence of GDP-bound NRAS wild-type protein (P01111 whole entry): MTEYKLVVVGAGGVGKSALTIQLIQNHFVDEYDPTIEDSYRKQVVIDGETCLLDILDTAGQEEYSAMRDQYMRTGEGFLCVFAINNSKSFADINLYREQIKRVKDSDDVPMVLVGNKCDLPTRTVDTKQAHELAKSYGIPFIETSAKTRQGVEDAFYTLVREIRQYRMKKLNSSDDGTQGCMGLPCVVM

[2] = biological target: GDP-bound HRAS wild-type protein (Homo sapiens, UniProt P01112); experiment: Binding to HRAS by surface plasmon resonance (SPR), Single Cycle Kinetics
Sequence of GDP-bound HRAS wild-type protein (P01112 whole entry): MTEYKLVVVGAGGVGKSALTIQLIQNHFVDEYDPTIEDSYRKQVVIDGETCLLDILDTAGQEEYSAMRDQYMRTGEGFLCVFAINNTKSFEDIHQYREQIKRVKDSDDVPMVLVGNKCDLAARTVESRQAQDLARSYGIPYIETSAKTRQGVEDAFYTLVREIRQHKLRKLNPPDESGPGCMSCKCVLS

[3] = KD ratio, GDP-bound NRAS wild-type vs GDP-bound KRAS wild-type, SPR
[4] = KD ratio, GDP-bound HRAS wild-type vs GDP-bound KRAS wild-type, SPR

`CCO[C@@H]1C[C@H]2C(=O)NC3(CC(F)(F)C3)C(=O)N(C)[C@@H](C3CCCC3)C(=O)N3CCC[C@@H]3CC(=O)N(C)[C@@H](CC)C(=O)N[C@@H]([C@@H](C)CC)C(=O)N(C)CC(=O)N(C)[C@H]3C/C=C\CCN(C3=O)[C@@H](Cc3ccc(C(F)(F)F)cc3)C(=O)N(C)CC(=O)N[C@@H](CCc3cc(F)c(C(F)(F)F)c(F)c3)C(=O)N2C1` [PP1609] was tested, and the “NRAS/KRAS (ratio of KD value for NRAS to KD value for KRAS)” value [1, 3] was “A (a compound having 10 or more and less than 20 is denoted as A)” and the “HRAS/KRAS (ratio of KD value for HRAS to KD value for KRAS)” value [2, 4] was “A (a compound having 10 or more and less than 20 is denoted as A)”.

`CCC[C@H]1C(=O)N[C@@H]([C@@H](C)CC)C(=O)N(C2CC2)CC(=O)N(C)[C@H]2C/C=C\CCN(C2=O)[C@@H](Cc2ccc(C(F)(F)F)cc2)C(=O)N(C)CC(=O)N[C@@H](CCc2ccc(C(F)(F)F)c(OC)c2)C(=O)N2C[C@H](OCC)C[C@H]2C(=O)NC2(CC(C)(C)C2)C(=O)N(C)[C@@H](CC2CCC2)C(=O)N(C)[C@H](C(=O)N(C)C)CC(=O)N1C` [PP2770] was tested, and the “NRAS/KRAS (ratio of KD value with respect to GDP-bound NRAS wild-type protein to KD value with respect to KRAS)” value ([1]; class symbols) was “A (a compound having 10 or more and less than 20 is denoted as A)” and the “HRAS/KRAS (ratio of KD value with respect to GDP-bound HRAS wild-type protein to KD value with respect to KRAS)” value ([2]; class symbols) was “A (a compound having 10 or more and less than 20 is denoted as A)”.

`CCCN1C(=O)CN(C)C(=O)CN(C)C(=O)[C@H]([C@@H](C)CC)NC(=O)[C@H](CC(C)C)N(C)C(=O)C[C@@H](C(=O)N(C)C)N(C)C(=O)[C@H](C2CCCC2)N(C)C(=O)C2(CCC2)NC(=O)[C@@H]2CC(F)(F)CN2C(=O)[C@H](CCc2ccc(C(F)(F)F)c(Cl)c2)NC(=O)CN(C)C(=O)[C@@H]1Cc1ccc(C(F)(F)F)cc1` [PP0414] ([NMeL]I[Sar][Sar][NPrPhe(4-CF3)][Sar][hPhe(3-Cl-4-CF3)][Pro(4,4-F2)][Ac4c][NMeGly(cPent)][NMeD]-NMe2; lactam N-11) was tested, and the “NRAS/KRAS (ratio of KD value with respect to GDP-bound NRAS wild-type protein to KD value with respect to KRAS)” value ([1]; SPR) was “B (a compound having 3 or more and less than 10 is denoted as B)” and the “HRAS/KRAS (ratio of KD value with respect to GDP-bound HRAS wild-type protein to KD value with respect to KRAS)” value ([2]; SPR) was “C (A compound having a KD ratio of 0.1 or more and less than 3 is denoted as C)”.

In the case of `CCO[C@@H]1C[C@H]2C(=O)NC3(CCC3)C(=O)N(C)[C@@H](C3CCCC3)C(=O)N(C)[C@H](C(=O)N3CCOCC3)CC(=O)N(C)[C@@H](CC(C)C)C(=O)N[C@@H]([C@@H](C)CC)C(=O)N3CC[C@H]3C(=O)N(C)[C@H]3C[C@@H](C)CCN(C3=O)[C@@H](Cc3ccc(C(F)(F)F)cc3)C(=O)N(C)CC(=O)N[C@@H](CCc3cc(F)c(C(F)(F)F)c(F)c3)C(=O)N2C1` [PP1026], the “NRAS/KRAS (ratio of KD value with respect to NRAS to KD value with respect to KRAS)” value [1, 3] is reported as “B (a compound having 3 or more and less than 10 is denoted as B)” and the “HRAS/KRAS (ratio of KD value with respect to HRAS to KD value with respect to KRAS)” value [2, 4] is reported as “B (a compound having 3 or more and less than 10 is denoted as B)”.

In the case of `CCCN1C(=O)CN(C)C(=O)[C@@H]2CCN2C(=O)[C@H]([C@@H](C)CC)NC(=O)[C@H](CC(C)C)N(C)C(=O)C[C@@H](C(=O)N(C)C)N(C)C(=O)[C@H](C2CCCC2)N(C)C(=O)C2(CCC2)NC(=O)[C@@H]2CCCN2C(=O)[C@H](CCc2ccc(C(F)(F)F)c(Cl)c2)NC(=O)CN(C)C(=O)[C@@H]1Cc1ccc(C(F)(F)F)cc1` [PP0430] ([NMeL]I[Aze][Sar][NPrPhe(4-CF3)][Sar][hPhe(3-Cl-4-CF3)]P[Ac4c][NMeGly(cPent)][NMeD]-NMe2; lactam N-11), the “NRAS/KRAS (ratio of KD value with respect to GDP-bound NRAS wild-type protein to KD value with respect to KRAS)” value ([1]; SPR) is reported as “B (a compound having 3 or more and less than 10 is denoted as B)” and the “HRAS/KRAS (ratio of KD value with respect to GDP-bound HRAS wild-type protein to KD value with respect to KRAS)” value ([2]; SPR) is reported as “B (a compound having 3 or more and less than 10 is denoted as B)”.

`CCCN1C(=O)[C@@H]2CCN2C(=O)[C@H](C)N(C)C(=O)[C@H]([C@@H](C)CC)NC(=O)[C@H](CC(C)C)N(C)C(=O)C[C@@H](C(=O)N2CCOCC2)N(C)C(=O)[C@H](C2CCCC2)N(C)C(=O)C2(CCCC2)NC(=O)[C@@H]2CCCN2C(=O)[C@H](CCc2ccc(C(F)(F)F)c(Cl)c2)NC(=O)CN(C)C(=O)[C@@H]1Cc1ccc(OC)cc1` [PP0134] ([NMeL]I[NMeA][Aze][X40][Sar][hPhe(3-Cl-4-CF3)]P[Ac5c][NMeGly(cPent)][NMeD]-Morpholide; lactam N-11) was tested, and the “NRAS/KRAS (ratio of KD for GDP-bound NRAS wild-type to KD for KRAS)” value ([1]; SPR) was “C (A compound having a KD ratio of 0.1 or more and less than 3 is denoted as C)” and the “HRAS/KRAS (ratio of KD for GDP-bound HRAS wild-type to KD for KRAS)” value ([2]; SPR) was “B (a compound having 3 or more and less than 10 is denoted as B)”.

In the case of `CCCN1C(=O)[C@@H]2[C@@H](C)CN2C(=O)[C@H](C)N(C)C(=O)[C@H]([C@@H](C)CC)NC(=O)[C@H](CC(C)C)N(C)C(=O)C[C@@H](C(=O)N2CCOCC2)N(C)C(=O)[C@H](C2CCCC2)N(C)C(=O)C2(CCCC2)NC(=O)[C@@H]2CCCN2C(=O)[C@H](CCc2ccc(C(F)(F)F)c(Cl)c2)NC(=O)CN(C)C(=O)[C@@H]1Cc1ccc(C(F)(F)F)cc1` [PP0141] ([NMeL]I[NMeA][Aze(3S-Me)][NPrPhe(4-CF3)][Sar][hPhe(3-Cl-4-CF3)]P[Ac5c][NMeGly(cPent)][NMeD]-Morpholide; lactam N-11), the “NRAS/KRAS (ratio of KD for GDP-bound NRAS wild-type to KD for KRAS)” value ([1]; SPR) is reported as “C (A compound having a KD ratio of 0.1 or more and less than 3 is denoted as C)” and the “HRAS/KRAS (ratio of KD for GDP-bound HRAS wild-type to KD for KRAS)” value ([2]; SPR) is reported as “B (a compound having 3 or more and less than 10 is denoted as B)”.
